# Key:
# ABL2/ARG = biological target: T1, ABL2/ARG (Homo sapiens, UniProt P42684); assay: HotSpot in vitro kinase radiometric assay; type: biochemical
# T1 construct: purchased Reaction Biology (HotSpot contract assay)
# BLK = biological target: T2, BLK (Homo sapiens, UniProt P51451); assay: HotSpot in vitro kinase radiometric assay; type: biochemical
# T2 construct: purchased Reaction Biology (HotSpot contract assay)
# Method in brief: (§1)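 Radiometric filter-binding read-out of 32P/33P-labelled phosphoproduct captured on filter paper. Reactions contain kinase, substrate, cofactors and ɣ-labelled ATP plus test compound; no modified substrate or coupling enzyme used.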
# LYN B = biological target: T3, LYN B (Homo sapiens, UniProt P07948); assay: HotSpot in vitro kinase radiometric assay; type: biochemical
# T3 construct: purchased Reaction Biology (HotSpot contract assay)
# Method in brief: as §1
# PDK2/PDHK2 = biological target: T4, PDK2/PDHK2 (Homo sapiens, UniProt Q15119); assay: HotSpot in vitro kinase radiometric assay; type: biochemical; settings: read-out: % inhibition at 10 uM: PDK2
# T4 construct: purchased Reaction Biology (HotSpot contract assay)
# Method in brief: as §1
# PDK4/PDKH4 = biological target: T5, PDK4/PDKH4 (Homo sapiens, UniProt Q16654); assay: HotSpot in vitro kinase radiometric assay; type: biochemical
# T5 construct: purchased Reaction Biology (HotSpot contract assay)
# Method in brief: as §1
# c-Src = biological target: T6, c-Src (Homo sapiens, UniProt P12931); assay: HotSpot in vitro kinase radiometric assay; type: biochemical
# T6 construct: purchased Reaction Biology (HotSpot contract assay)
# Method in brief: as §1
# PEAK1 = biological target: T7, PEAK1 (Homo sapiens, UniProt Q9H792); assay: HotSpot in vitro kinase radiometric assay; type: biochemical
# T7 construct: purchased Reaction Biology (HotSpot contract assay)
# FGR = biological target: T8, FGR (Homo sapiens, UniProt P09769); assay: HotSpot in vitro kinase radiometric assay; type: biochemical
# T8 construct: purchased Reaction Biology (HotSpot contract assay)
# FYN = biological target: T9, FYN (Homo sapiens, UniProt P06241); assay: HotSpot in vitro kinase radiometric assay; type: biochemical
# T9 construct: purchased Reaction Biology (HotSpot contract assay)
# PASK = biological target: T10, PASK (Homo sapiens, UniProt Q96RG2); assay: HotSpot in vitro kinase radiometric assay; type: biochemical
# T10 construct: purchased Reaction Biology (HotSpot contract assay)
# Method in brief: as §1
# TRKA = biological target: T11, TRKA (Homo sapiens, UniProt P04629); assay: HotSpot in vitro kinase radiometric assay; type: biochemical
# T11 construct: purchased Reaction Biology (HotSpot contract assay)
# Method in brief: as §1
# TRKC = biological target: T12, TRKC (Homo sapiens, UniProt Q16288); assay: HotSpot in vitro kinase radiometric assay; type: biochemical
# T12 construct: purchased Reaction Biology (HotSpot contract assay)
# LCK = biological target: T13, LCK (Homo sapiens, UniProt P06239); assay: HotSpot in vitro kinase radiometric assay; type: biochemical
# T13 construct: purchased Reaction Biology (HotSpot contract assay)
# YES/YES1 = biological target: T14, YES/YES1 (Homo sapiens, UniProt P07947); assay: HotSpot in vitro kinase radiometric assay; type: biochemical
# T14 construct: purchased Reaction Biology (HotSpot contract assay)
# HSP90AB1 = test system: HSP90AB1; parameters: method as in ChEMBL23 (accessed: 23/08/2018); settings: average of reported values; ref ChEMBL23 (accessed: 23/08/2018); cited from earlier work
# PIM1 = test system: PIM1; parameters: method as in ChEMBL23 (accessed: 23/08/2018); settings: average of reported values; ref ChEMBL23 (accessed: 23/08/2018); cited from earlier work
# CDK2 = test system: CDK2; parameters: method as in ChEMBL23 (accessed: 23/08/2018); settings: average of reported values; ref ChEMBL23 (accessed: 23/08/2018); cited from earlier work
# PRKD2 = test system: PRKD2; parameters: method as in ChEMBL23 (accessed: 23/08/2018); settings: average of reported values; ref ChEMBL23 (accessed: 23/08/2018); cited from earlier work
# PRKD3 = test system: PRKD3; parameters: method as in ChEMBL23 (accessed: 23/08/2018); settings: average of reported values; ref ChEMBL23 (accessed: 23/08/2018); cited from earlier work
# CSF1R = test system: CSF1R; parameters: method as in ChEMBL23 (accessed: 23/08/2018); settings: average of reported values; ref ChEMBL23 (accessed: 23/08/2018); cited from earlier work
# RPS6KA3 = test system: RPS6KA3; parameters: method as in ChEMBL23 (accessed: 23/08/2018); settings: average of reported values; ref ChEMBL23 (accessed: 23/08/2018); cited from earlier work
# ROCK1 = test system: ROCK1; parameters: method as in ChEMBL23 (accessed: 23/08/2018); settings: average of reported values; ref ChEMBL23 (accessed: 23/08/2018); cited from earlier work
# ROCK2 = test system: ROCK2; parameters: method as in ChEMBL23 (accessed: 23/08/2018); settings: average of reported values; ref ChEMBL23 (accessed: 23/08/2018); cited from earlier work
# ABL1 = ABL1 (Homo sapiens, UniProt P00519); assay: HotSpot in vitro kinase radiometric assay; type: biochemical; parameters: purchased Reaction Biology (HotSpot contract assay)
# DDR1 = DDR1 (Homo sapiens, UniProt Q08345); assay: HotSpot in vitro kinase radiometric assay; type: biochemical; parameters: purchased Reaction Biology (HotSpot contract assay)
# Chain of DDR1 (Q08345 19-913): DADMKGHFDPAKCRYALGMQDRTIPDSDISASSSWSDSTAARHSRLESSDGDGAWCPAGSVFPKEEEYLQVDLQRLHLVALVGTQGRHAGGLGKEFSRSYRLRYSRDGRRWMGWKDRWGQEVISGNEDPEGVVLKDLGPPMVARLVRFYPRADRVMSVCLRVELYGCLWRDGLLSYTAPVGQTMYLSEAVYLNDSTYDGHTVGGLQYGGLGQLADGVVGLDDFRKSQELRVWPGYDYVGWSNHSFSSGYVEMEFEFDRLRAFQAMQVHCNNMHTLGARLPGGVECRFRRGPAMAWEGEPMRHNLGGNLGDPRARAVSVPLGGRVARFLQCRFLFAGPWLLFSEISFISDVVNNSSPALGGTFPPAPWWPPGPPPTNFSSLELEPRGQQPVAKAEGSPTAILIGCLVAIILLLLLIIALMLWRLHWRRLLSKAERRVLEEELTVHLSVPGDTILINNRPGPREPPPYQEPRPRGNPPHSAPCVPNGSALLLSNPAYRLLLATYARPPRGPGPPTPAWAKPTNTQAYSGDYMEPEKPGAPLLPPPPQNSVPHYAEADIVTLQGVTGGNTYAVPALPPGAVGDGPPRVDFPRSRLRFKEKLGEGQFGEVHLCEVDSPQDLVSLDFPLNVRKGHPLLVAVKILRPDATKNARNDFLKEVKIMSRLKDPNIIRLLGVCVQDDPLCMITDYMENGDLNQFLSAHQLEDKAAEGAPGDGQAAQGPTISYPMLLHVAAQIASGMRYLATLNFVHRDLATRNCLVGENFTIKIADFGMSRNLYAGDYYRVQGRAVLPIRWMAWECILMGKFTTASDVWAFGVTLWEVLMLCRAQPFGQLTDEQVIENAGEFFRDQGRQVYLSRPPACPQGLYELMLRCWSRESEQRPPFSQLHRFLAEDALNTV
# T13 sequence (P06239 whole entry): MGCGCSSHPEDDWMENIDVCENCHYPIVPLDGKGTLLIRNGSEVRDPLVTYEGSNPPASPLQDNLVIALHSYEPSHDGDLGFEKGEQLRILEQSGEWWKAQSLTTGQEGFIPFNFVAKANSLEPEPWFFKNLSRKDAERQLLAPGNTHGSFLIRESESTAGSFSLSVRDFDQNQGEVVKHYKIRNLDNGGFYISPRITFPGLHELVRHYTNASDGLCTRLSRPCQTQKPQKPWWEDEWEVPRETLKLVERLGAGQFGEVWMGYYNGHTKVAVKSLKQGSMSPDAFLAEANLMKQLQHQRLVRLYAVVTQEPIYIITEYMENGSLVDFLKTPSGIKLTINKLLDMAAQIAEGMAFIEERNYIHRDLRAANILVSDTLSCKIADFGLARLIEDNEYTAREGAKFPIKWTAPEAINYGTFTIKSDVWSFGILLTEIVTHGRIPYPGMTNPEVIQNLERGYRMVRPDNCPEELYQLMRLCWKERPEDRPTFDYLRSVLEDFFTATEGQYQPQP
# T6 sequence (P12931 whole entry): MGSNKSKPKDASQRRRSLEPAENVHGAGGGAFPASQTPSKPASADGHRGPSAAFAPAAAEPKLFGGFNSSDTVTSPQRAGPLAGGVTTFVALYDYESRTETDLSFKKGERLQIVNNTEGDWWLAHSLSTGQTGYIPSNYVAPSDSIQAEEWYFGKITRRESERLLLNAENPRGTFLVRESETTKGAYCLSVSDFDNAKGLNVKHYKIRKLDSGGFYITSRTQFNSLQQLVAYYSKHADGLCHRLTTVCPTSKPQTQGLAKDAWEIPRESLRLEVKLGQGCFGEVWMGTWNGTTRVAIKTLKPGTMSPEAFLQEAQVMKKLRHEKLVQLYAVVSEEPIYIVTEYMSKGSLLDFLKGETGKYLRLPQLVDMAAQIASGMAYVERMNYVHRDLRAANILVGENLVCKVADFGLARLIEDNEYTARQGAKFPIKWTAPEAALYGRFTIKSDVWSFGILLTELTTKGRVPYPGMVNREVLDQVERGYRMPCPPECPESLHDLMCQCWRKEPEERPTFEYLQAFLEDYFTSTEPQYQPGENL
# T9 sequence (P06241 whole entry): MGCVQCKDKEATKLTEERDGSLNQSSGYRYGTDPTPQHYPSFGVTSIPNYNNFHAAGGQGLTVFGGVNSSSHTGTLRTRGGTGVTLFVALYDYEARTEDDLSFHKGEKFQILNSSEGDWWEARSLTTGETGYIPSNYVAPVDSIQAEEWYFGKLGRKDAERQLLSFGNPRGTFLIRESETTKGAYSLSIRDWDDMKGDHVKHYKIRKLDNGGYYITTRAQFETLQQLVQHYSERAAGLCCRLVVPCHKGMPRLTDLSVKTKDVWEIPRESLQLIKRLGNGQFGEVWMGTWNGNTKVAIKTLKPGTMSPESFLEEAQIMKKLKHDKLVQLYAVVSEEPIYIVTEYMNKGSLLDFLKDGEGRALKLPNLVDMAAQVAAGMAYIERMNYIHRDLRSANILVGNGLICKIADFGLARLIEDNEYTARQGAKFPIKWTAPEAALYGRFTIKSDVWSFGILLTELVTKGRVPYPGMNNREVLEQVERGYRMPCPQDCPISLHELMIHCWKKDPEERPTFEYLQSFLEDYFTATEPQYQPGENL
# T12 sequence (Q16288 32-839): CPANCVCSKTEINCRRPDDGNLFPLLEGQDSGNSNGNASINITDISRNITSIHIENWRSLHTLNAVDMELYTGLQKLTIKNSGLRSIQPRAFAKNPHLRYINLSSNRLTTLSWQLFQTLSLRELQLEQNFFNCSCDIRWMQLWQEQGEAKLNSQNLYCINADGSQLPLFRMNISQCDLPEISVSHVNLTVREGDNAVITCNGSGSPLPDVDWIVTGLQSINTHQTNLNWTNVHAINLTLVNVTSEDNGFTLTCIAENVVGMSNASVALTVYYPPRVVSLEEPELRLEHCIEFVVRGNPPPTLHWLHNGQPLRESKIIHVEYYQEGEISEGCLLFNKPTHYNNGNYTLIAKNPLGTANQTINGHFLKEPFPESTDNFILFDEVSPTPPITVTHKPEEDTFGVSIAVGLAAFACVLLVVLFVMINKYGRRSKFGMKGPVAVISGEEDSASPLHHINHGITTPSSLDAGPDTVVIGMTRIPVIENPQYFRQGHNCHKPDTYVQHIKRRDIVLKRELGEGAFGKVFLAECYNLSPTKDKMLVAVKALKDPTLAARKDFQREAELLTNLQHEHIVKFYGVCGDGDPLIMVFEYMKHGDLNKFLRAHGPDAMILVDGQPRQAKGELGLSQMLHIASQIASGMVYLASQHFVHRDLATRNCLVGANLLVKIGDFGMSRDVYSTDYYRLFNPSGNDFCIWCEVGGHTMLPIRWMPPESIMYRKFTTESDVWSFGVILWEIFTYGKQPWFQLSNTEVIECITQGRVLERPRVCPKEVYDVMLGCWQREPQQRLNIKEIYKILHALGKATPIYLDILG
# T11 sequence (P04629 33-796): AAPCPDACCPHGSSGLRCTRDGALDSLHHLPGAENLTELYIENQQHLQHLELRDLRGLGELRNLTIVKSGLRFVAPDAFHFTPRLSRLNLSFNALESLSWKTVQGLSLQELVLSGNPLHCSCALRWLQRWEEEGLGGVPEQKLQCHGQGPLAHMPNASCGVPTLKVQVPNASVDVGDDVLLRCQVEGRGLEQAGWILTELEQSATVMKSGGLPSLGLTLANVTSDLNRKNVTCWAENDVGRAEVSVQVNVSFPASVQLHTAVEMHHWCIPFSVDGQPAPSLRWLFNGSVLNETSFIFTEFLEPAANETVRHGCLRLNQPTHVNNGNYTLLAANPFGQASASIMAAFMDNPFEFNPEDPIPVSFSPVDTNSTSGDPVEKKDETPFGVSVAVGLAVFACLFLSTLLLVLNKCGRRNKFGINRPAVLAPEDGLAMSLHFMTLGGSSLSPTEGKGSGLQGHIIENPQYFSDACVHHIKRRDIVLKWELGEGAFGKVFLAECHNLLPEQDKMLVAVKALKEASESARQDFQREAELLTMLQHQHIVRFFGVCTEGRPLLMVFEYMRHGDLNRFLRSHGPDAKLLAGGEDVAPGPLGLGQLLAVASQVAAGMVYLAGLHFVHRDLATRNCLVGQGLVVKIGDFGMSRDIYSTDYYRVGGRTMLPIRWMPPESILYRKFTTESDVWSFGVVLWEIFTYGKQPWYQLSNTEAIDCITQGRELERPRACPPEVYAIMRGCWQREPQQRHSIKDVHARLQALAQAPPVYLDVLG
# T2 sequence (P51451 whole entry): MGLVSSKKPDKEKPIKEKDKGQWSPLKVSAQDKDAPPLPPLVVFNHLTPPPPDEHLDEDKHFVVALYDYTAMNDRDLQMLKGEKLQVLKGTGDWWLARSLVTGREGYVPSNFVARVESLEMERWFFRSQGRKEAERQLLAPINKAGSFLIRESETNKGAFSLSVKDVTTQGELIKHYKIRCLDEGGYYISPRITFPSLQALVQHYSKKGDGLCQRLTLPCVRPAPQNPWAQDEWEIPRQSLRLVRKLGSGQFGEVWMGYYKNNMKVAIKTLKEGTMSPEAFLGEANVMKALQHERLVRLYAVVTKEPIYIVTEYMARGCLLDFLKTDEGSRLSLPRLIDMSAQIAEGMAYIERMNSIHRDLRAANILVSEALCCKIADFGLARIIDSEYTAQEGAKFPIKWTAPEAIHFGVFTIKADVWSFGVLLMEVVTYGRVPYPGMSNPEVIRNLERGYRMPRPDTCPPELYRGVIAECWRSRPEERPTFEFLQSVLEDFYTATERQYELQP
# T5 sequence (Q16654 whole entry): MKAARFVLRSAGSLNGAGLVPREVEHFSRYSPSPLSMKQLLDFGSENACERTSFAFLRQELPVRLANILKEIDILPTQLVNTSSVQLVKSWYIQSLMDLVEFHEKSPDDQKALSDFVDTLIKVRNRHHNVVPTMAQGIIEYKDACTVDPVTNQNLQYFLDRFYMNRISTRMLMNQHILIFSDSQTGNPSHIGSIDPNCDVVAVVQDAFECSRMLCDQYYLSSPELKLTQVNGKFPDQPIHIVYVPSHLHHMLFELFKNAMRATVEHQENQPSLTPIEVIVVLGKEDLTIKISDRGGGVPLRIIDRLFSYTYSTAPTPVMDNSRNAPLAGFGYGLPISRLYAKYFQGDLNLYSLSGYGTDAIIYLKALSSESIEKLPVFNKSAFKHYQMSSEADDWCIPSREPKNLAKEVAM
smiles,measurement,setting,value
CCNC(=O)c1n[nH]c(-c2cc(Cl)c(O)cc2O)c1-c1ccc(OC)cc1 [VER-49009],remaining activity at 10 µM,"ABL2/ARG; read-out: % Enzyme Activity (relative to DMSO controls), ABL2/ARG, 10uM, ATP 30 uM, Data 1, Data 2",101%
same,inhibition at 10 µM,ABL2/ARG; read-out: % inhibition at 10 uM: ABL2,1 ± 3%
same,remaining activity at 10 µM,"BLK; read-out: % Enzyme Activity (relative to DMSO controls), BLK, 10uM, ATP 10 uM, Data 1, Data 2",70.1%
same,inhibition at 10 µM,BLK; read-out: % inhibition at 10 uM: BLK,24 ± 8%
same,remaining activity at 10 µM,"LYN B; read-out: % Enzyme Activity (relative to DMSO controls), LYN B, 10uM, ATP 20 uM, Data 1, Data 2",108%
same,inhibition at 10 µM,LYN B; read-out: % inhibition at 10 uM: LYN B,-6 ± 3%
same,inhibition at 10 µM,PDK2/PDHK2,95 ± 5%
same,remaining activity at 10 µM,"PDK4/PDKH4; read-out: % Enzyme Activity (relative to DMSO controls), PDK4/PDKH4, 10uM, ATP 30 uM, Data 1, Data 2",15.1%
same,inhibition at 10 µM,PDK4/PDKH4; read-out: % inhibition at 10 uM: PDK4,86 ± 1%
same,remaining activity at 10 µM,"c-Src; read-out: % Enzyme Activity (relative to DMSO controls), c-Src, 10uM, ATP 15 uM, Data 1, Data 2",65.9%
same,inhibition at 10 µM,c-Src; read-out: % inhibition at 10 uM: SRC,35 ± 1%
same,remaining activity at 10 µM,"PEAK1; read-out: % Enzyme Activity (relative to DMSO controls), PEAK1, 10uM, ATP 30 uM, Data 1, Data 2",75.5%
same,inhibition at 10 µM,PEAK1; read-out: % inhibition at 10 uM: PEAK1,24%
same,remaining activity at 10 µM,"FGR; read-out: % Enzyme Activity (relative to DMSO controls), FGR, 10uM, ATP 50 uM, Data 1, Data 2",99%
same,inhibition at 10 µM,FGR; read-out: % inhibition at 10 uM: FGR,1%
same,remaining activity at 10 µM,"FYN; read-out: % Enzyme Activity (relative to DMSO controls), FYN, 10uM, ATP 30 uM, Data 1, Data 2",89.2%
same,inhibition at 10 µM,FYN; read-out: % inhibition at 10 uM: FYN,13 ± 3%
same,remaining activity at 10 µM,"PASK; read-out: % Enzyme Activity (relative to DMSO controls), PASK, 10uM, ATP 50 uM, Data 1, Data 2",98%
same,inhibition at 10 µM,PASK; read-out: % inhibition at 10 uM: PASK,2%
same,remaining activity at 10 µM,"TRKA; read-out: % Enzyme Activity (relative to DMSO controls), TRKA, 10uM, ATP 100 uM, Data 1, Data 2",20.6%
same,inhibition at 10 µM,TRKA; read-out: % inhibition at 10 uM: TRKA,79 ± 1%
same,remaining activity at 10 µM,"TRKC; read-out: % Enzyme Activity (relative to DMSO controls), TRKC, 10uM, ATP 100 uM, Data 1, Data 2",68.4%
same,inhibition at 10 µM,TRKC; read-out: % inhibition at 10 uM: TRKC,28 ± 5%
same,remaining activity at 10 µM,"LCK; read-out: % Enzyme Activity (relative to DMSO controls), LCK, 10uM, ATP 15 uM, Data 1, Data 2",72.8%
same,inhibition at 10 µM,LCK; read-out: % inhibition at 10 uM: LCK,25 ± 3%
same,remaining activity at 10 µM,"YES/YES1; read-out: % Enzyme Activity (relative to DMSO controls), YES/YES1, 10uM, ATP 50 uM, Data 1, Data 2",77.2%
same,inhibition at 10 µM,YES/YES1; read-out: % inhibition at 10 uM: YES,24 ± 1%
same,"pActivity, HSP90AB1",HSP90AB1,7.6
same,"pActivity, PIM1",PIM1,5.6
same,"pActivity, CDK2",CDK2,5.2
same,"pActivity, PRKD2",PRKD2,5.8
same,"pActivity, PRKD3",PRKD3,5.8
same,"pActivity, CSF1R",CSF1R,5.9
same,"pActivity, RPS6KA3",RPS6KA3,5.5
same,"pActivity, ROCK1",ROCK1,5.4
same,"pActivity, ROCK2",ROCK2,5.6
same,remaining activity at 10 µM,"ABL1; read-out: % Enzyme Activity (relative to DMSO controls), ABL1, 10uM, ATP 40 uM, Data 1, Data 2",80.2%
same,inhibition at 10 µM,ABL1; read-out: % inhibition at 10 uM: ABL1,14 ± 8%
same,remaining activity at 10 µM,"DDR1; read-out: % Enzyme Activity (relative to DMSO controls), DDR1, 10uM, ATP 100 uM, Data 1, Data 2",65.8%
same,inhibition at 10 µM,DDR1; read-out: % inhibition at 10 uM: DDR1,29 ± 8%

# From publication PMC8550792, “Evolution of kinase polypharmacology across HSP90 drug discovery” (Cell Chemical Biology, 2021)
